Measurements taken from PMC10865345, “Multivalent Calixarene Complexation of a Designed Pentameric Lectin” (Biomacromolecules, 2024).

Biological target: T1, Pent (designed pentameric 5-bladed β-propeller lectin, 5c2n-N33K)
T1 construct: 47-residue monomer (lacking Met1), homopentamer of ~26 kDa; designed, based on tachylectin-2 (PDB 5C2N)
Test: X-ray cocrystal structures (forms I and II); 1H-15N HSQC NMR titration
Format: binding, synthetic construct

Work on `O=S(=O)(O)c1cc2c(O)c(c1)Cc1cc(S(=O)(=O)O)cc(c1O)Cc1cc(S(=O)(=O)O)cc(c1O)Cc1cc(S(=O)(=O)O)cc(c1O)Cc1cc(S(=O)(=O)O)cc(c1O)Cc1cc(S(=O)(=O)O)cc(c1O)Cc1cc(S(=O)(=O)O)cc(c1O)Cc1cc(S(=O)(=O)O)cc(c1O)C2` [sclx8, sulfonato-calix[8]arene] yielded a Kd of less than 3 µM.
